Assay results from patent publication US20090131380A1, “Novel pharmaceutical composition for topical treatment of skin psoriasis and the treatment method thereof” (priority 2007, published 2009).

Columns and labels:
[1] = test system: skin psoriasis; conditions: cited from earlier work; for clinical antipsoriatic efficacy: topical, 0.05% (w/w) in Locobase® unctuous creme, 50 μg/cm^2/24 h, 35 days; for effect on psoriatic rash (irritation / worsening): topically administered
[2] = test system: psoriatic plaques (skin psoriasis); test: Topical treatment trial of psoriatic plaques in one psoriasis patient (Tetrac, Control and Daivonex regimens); format: in vivo, human; conditions: twice a day
Experimental: A psoriasis patient having almost symmetrical psoriatic plaques on the lateral sides of both elbows (l.dx: 41 cm^2 and l.sin: 44 cm^2) and a psoriatic plaque (53 cm^2) on right calf was chosen for the trial.
a) An ointment (Locobase® unctuous creme, Astellas Pharma A/S Glostrup, Denmark) in which 500 μg/g 3,3′,5,5′-tetraiodothyroacetic acid (0.05%) of GMP-quality (Pharmatory Ltd., Oulu, Finland) was mixed was used as an ex tempore preparation for the concerned treatment purpose (hereinafter referred to as “Tetrac”).
b) A 50 μg/g calcipotriol (0.005%) containing creme (Daivonex®, LEO Pharma A/S, Ballerup, Denmark) was available as commercial pharmaceutical product (hereinafter referred to as “Daivonex®”).
c) A betamethasone 17-valerate-containing creme (Bemetson®, Orion oyj, Espoo, Finland) responding betamethasone 1 mg/g (0.1%) was available as a commercial product (hereinafter referred to as “Bemetson®”).
a) The psoriatic lesion of the left elbow of the patient was selected as the target of the topical treatment with Tetrac, the result of which is shown in left column of FIG. 1—“The Tetrac Regimen”. […]

[3] = test system: plaque psoriasis; conditions: placebo-controlled double-blind study, carried out in 1997; cited from earlier work
[4] = test system: psoriasis; conditions: topical Triac; WO96/40048; cited from earlier work

Q: Which clinical antipsoriatic efficacy [1] does the source give for `N[C@H](Cc1cc(I)c(Oc2cc(I)c(O)c(I)c2)c(I)c1)C(=O)O` [D-thyroxine] here?
A: ineffective

Q: What about the “effect on psoriatic rash (irritation / worsening)” value (“effect … (irritation / worsening)” for short) [1] of the same compound?
A: do not irritate or worsen psoriatic rash

Q: With `N[C@@H](Cc1cc(I)c(Oc2cc(I)c(O)c(I)c2)c(I)c1)C(=O)O` [L-thyroxine] as the compound, how does the “effect … (irritation / worsening)” value [1] read?
A: greatly worsen psoriatic rash

Q: With `N[C@@H](Cc1cc(I)c(Oc2ccc(O)c(I)c2)c(I)c1)C(=O)O` [L-triiodothyronine] as the compound, how does the “effect … (irritation / worsening)” value [1] read?
A: greatly worsen psoriatic rash

Q: For `O=C(O)Cc1cc(I)c(Oc2cc(I)c(O)c(I)c2)c(I)c1` [Tetrac, 3,3′,5,5′-tetraiodothyroacetic acid], which “clinical antipsoriatic effect on psoriatic lesion” value ([2]; after five weeks, photographs FIG. 1 / FIG. 2) is on record?
A: clear clinical antipsoriatic effect

Q: What about the “clinical antipsoriatic effect / healing of psoriatic plaque at end of trial” value ([2]; six weeks, Bemetson® (betamethasone) concurrently added for the final sixth week) of the same compound?
A: surprisingly more potent clinical antipsoriatic effect

Q: And the clinical antipsoriatic efficacy [1]?
A: strong clinical antipsoriatic efficacy

Q: With `O=C(O)CCc1cc(I)c(Oc2cc(I)c(O)c(I)c2)c(I)c1` [Tetraprop, 3,3′,5,5′-tetraiodothyropropionic acid] as the compound, how does the clinical antipsoriatic efficacy [1] read?
A: strong clinical antipsoriatic efficacy

Q: With `O=C(O)Cc1cc(I)c(Oc2ccc(O)c(I)c2)c(I)c1` [Triac, 3,3′5-triiodothyroacetic acid] as the compound, how does the clinical antipsoriatic efficacy [1] read?
A: indeed ineffective

Q: What about the “effect … (irritation / worsening)” value [1] of the same compound?
A: do not irritate or worsen psoriatic rash

Q: And the “efficacy in the topical treatment of plaque psoriasis” value [3]?
A: ineffective

Q: And the “experiment persons in whom an antipsoriatic effect had emerged” value [4]?
A: 60%
